{"source": "patent US20250281462A1", "about": "“THERAPEUTICALLY EFFECTIVE ORAL ADMINISTRATION OF A 2 ARYLBENZIMIDAZOLE” (Tranquis Therapeutics, Inc., priority 2021, published 2025)", "key": {"[1]": {"assay": "Plasma and brain concentrations after single oral dose 45 mg/kg in mice", "assay_type": "in vivo", "conditions": "for Kp: brain, 45 mg/kg, mice, 45 mg/kg p.o.", "protocol": "Mice were administered a single oral dose of 45 mg/kg TQS-168. TQS-168 was prepared at a concentration of 5.0 mg/mL as a solution in 10% polyethylene glycol (PEG) 400|130% Kleptose (Roquette) 60% water.\nConcentrations in plasma and in brain were measured at various timepoints and various pharmacokinetic parameters were calculated, as shown below in Tables 4 and 5 and in FIGS. 19A and 19B.\nTQS-168 was prepared as a 4.5 mg/ml solution in PEG400 10%| Kleptose 30% sterile water 60%. A single oral dose of 45 mg/kg was administered. Concentrations of TQS-621 were measured in plasma and brain over time."}, "[2]": {"assay": "Plasma concentrations of TQS-168 and TQS-621 after single oral dose 50 mg/kg in mice, three formulations", "assay_type": "in vivo", "conditions": "male, C57BL/6, mouse, plasma, po, 50 mg/kg; for Cmax / AUC(0-t) / Tmax / AUC(0-inf) / half-life: mice plasma; for Cmax: read-out: Cmax; for Tmax: read-out: tmax", "protocol": "In a second experiment, mice were administered 50 mg/kg TQS-168 by oral gavage. For Group 1, TQS-168 was prepared at a concentration of 5.0 mg/mL in a suspension with […] in PBS. For Group 2, TQS-168 was prepared at a concentration of 5.0 mg/mL as a solution in 10 polyethylene glycol (PEG) 400|30 Kleptose (Roquete)|60% water.\nPlasma exposures for Group 1 mice (ng/mL) are presented in Table 2 and for Group 2 mice in Table 3.\nC57BL/6 male mice were administered a single dose of TQS-168 at 50 mg/kg using one of three formulations: Group 1-5.0 mg/ml suspension in 0.5% methylcellulose in PBS; Group 2-5.0 mg/ml solution in PEG400 (Fluka) 10%|Kleptose (Roquette) 30%|sterile water 60%; Group 3-5.0 mg/ml suspension in Labrafil M 1944 CS (Gattefosse) 30%|Masine CC (Gattefosse) 5%|Miglyol 812N 10%|sterile water 55%.\nPlasma concentrations of TQS-168 and TQS-621 were measured overtime."}, "[3]": {"conditions": "mice brain, TQS-168 45 mg/kg p.o., solution PEG 400/Kleptose/water"}, "[4]": {"conditions": "mice plasma, TQS-168 45 mg/kg p.o., solution PEG 400/Kleptose/water"}, "[5]": {"conditions": "mouse, po, mice brain, TQS-168 45 mg/kg p.o., solution PEG 400/Kleptose/water"}, "[6]": {"conditions": "mouse, po, mice plasma, TQS-168 45 mg/kg p.o., solution PEG 400/Kleptose/water"}, "[7]": {"conditions": "TQS-168 50 mg/kg p.o., Group 1 (suspension, 0.5% methylcellulose in PBS), individual mouse"}, "[8]": {"conditions": "TQS-168 50 mg/kg p.o., Group 1 (suspension, 0.5% methylcellulose in PBS), mean"}, "[9]": {"conditions": "TQS-168 50 mg/kg p.o., Group 2 (solution, PEG400/Kleptose/water), individual mouse"}, "[10]": {"conditions": "TQS-168 50 mg/kg p.o., Group 2 (solution, PEG400/Kleptose/water), mean"}, "[11]": {"conditions": "TQS-168 50 mg/kg p.o., Group 3 (suspension, Labrafil/Masine/Miglyol/water), individual mouse"}, "[12]": {"conditions": "TQS-168 50 mg/kg p.o., Group 3 (suspension, Labrafil/Masine/Miglyol/water), mean"}}, "note": "Like-named read-outs stand apart in the source and are kept apart here.", "data": [{"compound": "CC(C)(C)c1ccc(-c2nc3ccccc3[nH]2)cc1", "note": "[TQS-168, 2-(4-tert-butylphenyl)-1H-benzimidazole]", "values": [{"measurement": "AUCExtr", "setting": "[1]; [3]", "result": 0.308, "unit": "%"}, {"measurement": "AUCInf", "setting": "[1]; [3]", "result": 24668, "unit": "ng·h/g"}, {"measurement": "AUCInf/D", "setting": "[1]; [3]", "result": 548, "unit": "kg·ng·h/g/mg"}, {"measurement": "AUClast", "setting": "[1]; mice brain, TQS-168 45 mg/kg p.o., solution PEG 400/Kleptose/water, last time point 24 hr", "result": 24592, "unit": "ng·h/g"}, {"measurement": "AUCExtr", "setting": "[1]; [4]", "result": 0.188, "unit": "%"}, {"measurement": "AUCInf/D", "setting": "[1]; [4]", "result": 302, "unit": "kg·ng·h/mL/mg"}, {"measurement": "Kp", "setting": "[1]; mouse, po, read-out: Brain-to-plasma AUC ratio", "result": 1.81}, {"measurement": "Kp", "setting": "[1]; mouse, po, read-out: Brain-to-plasma Cmax ratio", "result": 1.84}, {"measurement": "Cmax", "setting": "[1]; [5]", "result": 4260, "unit": "ng/g"}, {"measurement": "MRT inf", "setting": "[1]; [5]", "result": 3.45, "unit": "h"}, {"measurement": "Tmax", "setting": "[1]; [5]", "result": 1, "unit": "h"}, {"measurement": "half-life", "setting": "[1]; [5]", "result": 3.66, "unit": "h"}, {"measurement": "AUC(0-inf)", "setting": "[1]; [6]", "result": 13600, "unit": "ng·h/mL"}, {"measurement": "Cmax", "setting": "[1]; [6]", "result": 2310, "unit": "ng/mL"}, {"measurement": "MRT inf", "setting": "[1]; [6]", "result": 3.35, "unit": "h"}, {"measurement": "Tmax", "setting": "[1]; [6]", "result": 0.5, "unit": "h"}, {"measurement": "half-life", "setting": "[1]; [6]", "result": 3.26, "unit": "h"}, {"measurement": "AUC(0-t)", "setting": "[1]; mouse, po, mice plasma, TQS-168 45 mg/kg p.o., solution PEG 400/Kleptose/water, last time point 24 hr", "result": 13600, "unit": "ng·h/mL"}, {"measurement": "Cmax", "setting": "[2]; 50 mg/kg p.o., Group 1 (suspension)", "result": 4.5, "unit": "µM"}, {"measurement": "Cmax", "setting": "[2]; 50 mg/kg p.o., Group 2 (solution)", "result": 8.54, "unit": "µM"}, {"measurement": "Cmax", "setting": "[2]; 50 mg/kg p.o., Group 3 (suspension)", "result": 2.4, "unit": "µM"}, {"measurement": "AUC(0-t)", "setting": "[2]; [7]", "result": 5040, "unit": "ng·h/mL"}, {"measurement": "Cmax", "setting": "[2]; [7]", "result": 1280, "unit": "ng/mL"}, {"measurement": "Tmax", "setting": "[2]; [7]", "result": 1, "unit": "h"}, {"measurement": "AUC(0-inf)", "setting": "[2]; [8]", "result": 8110, "unit": "ng·h/mL"}, {"measurement": "AUC(0-t)", "setting": "[2]; [8]", "result": 5970, "unit": "ng·h/mL"}, {"measurement": "half-life", "setting": "[2]; [8]", "result": 4.3, "unit": "h"}, {"measurement": "Cmax", "setting": "[2]; [8]", "result": 1120, "unit": "ng/mL"}, {"measurement": "Tmax", "setting": "[2]; [8]", "result": 0.833, "unit": "h"}, {"measurement": "AUC(0-inf)", "setting": "[2]; [9]", "result": 11400, "unit": "ng·h/mL"}, {"measurement": "AUC(0-t)", "setting": "[2]; [9]", "result": 10600, "unit": "ng·h/mL"}, {"measurement": "half-life", "setting": "[2]; [9]", "result": 2.81, "unit": "h"}, {"measurement": "Cmax", "setting": "[2]; [9]", "result": 1950, "unit": "ng/mL"}, {"measurement": "Tmax", "setting": "[2]; [9]", "result": 0.5, "unit": "h"}, {"measurement": "AUC(0-inf)", "setting": "[2]; [10]", "result": 11400, "unit": "ng·h/mL"}, {"measurement": "AUC(0-t)", "setting": "[2]; [10]", "result": 10700, "unit": "ng·h/mL"}, {"measurement": "half-life", "setting": "[2]; [10]", "result": 2.82, "unit": "h"}, {"measurement": "Cmax", "setting": "[2]; [10]", "result": 2140, "unit": "ng/mL"}, {"measurement": "Tmax", "setting": "[2]; [10]", "result": 0.833, "unit": "h"}, {"measurement": "AUC(0-inf)", "setting": "[2]; [11]", "result": 4250, "unit": "ng·h/mL"}, {"measurement": "AUC(0-t)", "setting": "[2]; [11]", "result": 4110, "unit": "ng·h/mL"}, {"measurement": "half-life", "setting": "[2]; [11]", "result": 1.47, "unit": "h"}, {"measurement": "Cmax", "setting": "[2]; [11]", "result": 611, "unit": "ng/mL"}, {"measurement": "AUC(0-inf)", "setting": "[2]; [12]", "result": 4150, "unit": "ng·h/mL"}, {"measurement": "AUC(0-t)", "setting": "[2]; [12]", "result": 3930, "unit": "ng·h/mL"}, {"measurement": "half-life", "setting": "[2]; [12]", "result": 1.71, "unit": "h"}, {"measurement": "Cmax", "setting": "[2]; [12]", "result": 611, "unit": "ng/mL"}, {"measurement": "Tmax", "setting": "[2]; [12]", "result": 3.17, "unit": "h"}, {"measurement": "concentration at 0.25 h", "setting": "[2]; mice, 50 mg/kg p.o., Group 1 (suspension, methylcellulose in PBS), individual mouse, read-out: Calculated Concentration in plasma", "result": 586, "unit": "ng/mL"}, {"measurement": "concentration at 0.25 h", "setting": "[2]; mice, 50 mg/kg p.o., Group 1 (suspension, methylcellulose in PBS), mean, read-out: Calculated Concentration in plasma", "result": 653, "unit": "ng/mL"}, {"measurement": "concentration at 0.5 h", "setting": "[2]; mice, 50 mg/kg p.o., Group 1 (suspension, methylcellulose in PBS), 0.5 hr, mean, read-out: Calculated Concentration in plasma", "result": 949, "unit": "ng/mL"}]}]}
